In this assay the target is Human insulin (HI) (Homo sapiens, UniProt P01308). The assay can be described thus: ITC, insulin titrated into CBBG, one-site model. It is filed as binding. (In general: Isothermal titration calorimetry measures the heat released or taken up as one component is titrated into another.)

pKd: −log10 of the molar value.

Human insulin (HI), sequence (P01308 25-54): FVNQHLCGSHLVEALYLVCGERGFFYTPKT
Human insulin (HI), sequence (P01308 90-110): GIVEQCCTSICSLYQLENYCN

For the molecule `CCOc1ccc(Nc2ccc(/C(=C3C=C/C(=[N+](/CC)Cc4cccc(S(=O)(=O)[O-])c4)C=C/3C)c3ccc(N(CC)Cc4cccc(S(=O)(=O)O)c4)cc3C)cc2)cc1` [Coomassie Brilliant Blue G-250], the pKd (usually the Kd on a negative log10 scale, so that one unit is a factor of ten) was 4.90.

These data come from doi:10.1101/2020.08.26.267799v1 (biorxiv, 2020).
